Source: patent US20110166220A1, “DRONEDARONE FOR THE PREVENTION OF PERMANENT ATRIAL FIBRILLATION” (SANOFI-AVENTIS, priority 2008, published 2011)
Structures can show the parent of a compound that is named as a salt.

Assays:
[1] = Same trial: prevention of cardiovascular hospitalization or death in patients with permanent atrial fibrillation; format: in vivo
Procedure: The invention is illustrated with the data below. Efficacy of dronedarone and its pharmaceutically acceptable salts versus placebo for the prevention of permanent atrial fibrillation was provided via dronedarone hydrochloride during a prospective, multinational, double-blind, randomized, multi-center, placebo-controlled, parallel group trial. Study drug treatment units (placebo or dronedarone hydrochloride corresponding to 400 mg of base) were such that each patient took one tablet in the morning during or shortly after breakfast and one tablet in the evening during or shortly after dinner. The treatment duration depended on the time of recruitment of each patient in the trial and could be comprised from 12 months to 30 months. From the 4628 patients included in the trial, 2301 were part of the group treated with dronedarone hydrochloride. “Patients with permanent atrial fibrillation or flutter” means patients with a history of atrial fibrillation or atrial flutter, who were in atrial fibrillation or flutter at the time of recruitment but who had not a previous history of permanent atrial fibrillation or flutter and who stayed in permanent atrial fibrillation or flutter during all the trial. The results obtained during this trial were analyzed by the Kaplan Meier method for the figures and the relative risk (RR) was estimated using Cox's proportional effect regression model. The relative risk (RR) is the ratio of the rates of occurrence of a hospitalization or death in patients receiving dronedarone compared with patients receiving a placebo. The percentage reduction x of a given event (hospitalization, death, cardiovascular death and the like) is calculated in the following manner: x=1−relative risk. Of the 4628 patients included in the study, 2301 formed part of the group treated with dronedarone hydrochloride. […] 74 events were recorded in the placebo group against 29 in the group treated with dronedarone hydrochloride. The calculated relative risk is 0.67 with p=0.06, that is a 33% reduction in cardiovascular hospitalizations and deaths under dronedarone hydrochloride.

[2] = Prospective, multinational, double-blind, randomized, placebo-controlled, parallel group trial: prevention of permanent atrial fibrillation/flutter; format: in vivo; settings: of 2301 patients treated; 400 mg of base twice daily with meals, 12 to 30 months; placebo 294; Fischer's exact test p<0.001
Description: The invention is illustrated with the data below. Efficacy of dronedarone and its pharmaceutically acceptable salts versus placebo for the prevention of permanent atrial fibrillation was provided via dronedarone hydrochloride during a prospective, multinational, double-blind, randomized, multi-center, placebo-controlled, parallel group trial.
Patients must have a history of atrial fibrillation or atrial flutter and/or may be in normal sinus rhythm or in atrial fibrillation or flutter at the time of recruitment. Recruitment of patients was conducted taking into account the following inclusion criteria:
1) One of the following risk factors had to be present: • age equal to or greater than 70 years, • hypertension (taking antihypertensives of at least two different classes), • diabetes, • history of cerebral stroke (transient ischemic event or completed cerebral stroke) or of systemic embolism, • left atrial diameter greater than or equal to 50 mm measured by echocardiography, • left ventricular ejection fraction less than 40%, measured by two-dimensional echography; […]

CCCCc1oc2ccc(NS(C)(=O)=O)cc2c1C(=O)c1ccc(OCCCN(CCCC)CCCC)cc1 [dronedarone hydrochloride, 2-n-butyl-3-[4-(3-di-n-butylaminopropoxy)benzoyl]-5-methylsulfonamido-benzofuran]
events (cardiovascular hospitalization or death) recorded in patients in permanent atrial fibrillation ([1]; 178 patients in permanent AF in treated group, placebo 74 events of 294 patients): 29 events
relative risk (RR) of cardiovascular hospitalization or death versus placebo ([1]; patients in permanent atrial fibrillation, Cox's proportional effect regression model, p=0.06): 0.67
reduction in cardiovascular hospitalizations and deaths (x=1-relative risk) ([1]; patients in permanent atrial fibrillation, versus placebo, p=0.06): 33%
number of patients with permanent atrial fibrillation/flutter [2]: 178 patients
